Source: paper PMC10914731, “Homo-BacPROTAC-induced degradation of ClpC1 as a strategy against drug-resistant mycobacteria” (Nature Communications, 2024)
In brackets after ≈: the same amount, converted by molar mass. Several values for one entry are separate records, joined by “and”; a condition that tells them apart may be missing. Equal values may be shown once. Read-outs that look alike come from different tables or passages of the source. *1 amine or outer side, *2 acyl side, *3 side chain or, on linkers, in order; H or OH if unused. Where a SMILES comes first, the peptide text is derived from it. [ ]: non-standard residue; d: D form. X3 = C#CCOc1ccc([C@@H](OC)[C@H](N[*:1])C(=O)[*:2])cc1; X2 = C#CCn1cc(C[C@@H](C(=O)[*:2])N(C)[*:1])c2ccccc21; NMeLeu(5-OH,4R) = CN[C@@H](C[C@@H](C)CO)C(=O)O; Phe(βR-OMe) = CO[C@H](c1ccccc1)[C@H](N)C(=O)O; Trp(1-Me) = Cn1cc(C[C@H](N)C(=O)O)c2ccccc21; NMeL = CN[C@@H](CC(C)C)C(=O)O

Key:
[1] = molecular target: ClpC1 NTD protein (M. tuberculosis) (Mycobacterium tuberculosis, UniProt P9WPC9); experiment: biochemical; format: binding
Chain of ClpC1 NTD protein (M. tuberculosis) (P9WPC9 1-156, looked up, natural form): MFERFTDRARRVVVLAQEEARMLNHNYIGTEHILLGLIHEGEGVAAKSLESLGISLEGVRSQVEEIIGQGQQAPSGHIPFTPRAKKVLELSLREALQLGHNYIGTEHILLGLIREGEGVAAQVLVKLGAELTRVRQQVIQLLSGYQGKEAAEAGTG

in vitro = conditions: human; for efflux ratio: Caco-2
Outline: (§1)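 Values are bidirectional Caco-2 apparent permeabilities, P(A−B) and P(B−A), given in 10^-6 cm s-1. The efflux ratio divides P(B−A) by P(A−B), and intrinsic permeability averages the two directions.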

Caco-2 monolayers = experiment: in vitro; conditions: human, Caco-2
Outline: as §1

[2] = format: in vitro ADME, Mice; conditions: for Microsomal Stability Mice: clearance in microsomes
Experimental: (§2) The kinetics of compound degradation in liver microsomes is assessed in an assay with 1 µmol/l of compound and 0.5 mg/ml liver microsomes in a medium of 100 mM Tris-HCl pH 7.5, 6.5 mM MgCl2 and 1 mM NADPH at 37 °C. The reaction is stopped at multiple time points by adding acetonitrile. After centrifugation, the compound concentration is measured in the supernatants by high-performance liquid chromatography (HPLC) tandem mass spectrometry (MS/MS). The results are fitted to a first-order decay and the half-lives are converted to clearance (stated as % of the liver blood flow (%Qh)) using the well-stirred liver model.

[3] = format: in vitro ADME, Rat; conditions: for Microsomal Stability Rat: clearance in microsomes
Experimental: as §2

[4] = Microsomal stability, human; format: in vitro ADME; conditions: for Microsomal Stability Human: clearance in microsomes
Experimental: as §2

[5] = Hepatocyte stability, mice; format: in vitro ADME; conditions: mouse, pH 7.4
Outline: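 Parent depletion by HPLC-MS/MS in mouse hepatocyte suspension (50% serum, ~1 million cells/mL) with 1 µM compound over up to 6 h at 37 °C. Half-lives were scaled to % Qh using the well-stirred liver model.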

[6] = format: in vitro ADME, Rat; conditions: rat, pH 7.4
[7] = format: in vitro ADME, Human; conditions: human, pH 7.4
[8] = system: M. tuberculosis H37Rv (ATCC 27294); experiment: microbe, parasite or virus in culture; format: cell-based; conditions: Mycobacterium tuberculosis
Msm 607 = experiment: microbe, parasite or virus in culture; format: cell-based
Msm 700084 = experiment: microbe, parasite or virus in culture; format: cell-based
[9] = SPR dissociation rate constant, read-out: koff ClpC1-NTD Mean ± SD
[10] = SPR, individual measurements (source data), read-out: KD ClpC1-NTD
[11] = SPR, single independent measurements
[12] = SPR, single independent measurements, read-out: koff ClpC1-NTD
[13] = SPR, read-out: ClpC1-NTD KD Mean ± SD
[14] = Caco-2, Caco-2 permeability P (A-B)
[15] = Caco-2, Caco-2 permeability P (B-A)
[16] = M. tuberculosis H37Rv strain, read-out: MIC Mtb H37Rv Mean ± SD
[17] = Mtb H37Rv (Supplementary Table 2), read-out: MIC Mtb
[18] = individual measurements (source data), read-out: Mtb MIC
[19] = single determinations, read-out: Mtb MIC
[20] = Mycolicibacterium smegmatis, 607, read-out: MIC Msm 607
[21] = Mycolicibacterium smegmatis, 607, read-out: Msm 607 MIC, single determinations
[22] = Mycolicibacterium smegmatis, 700084, single determinations, read-out: Msm 700084 MIC
[23] = Mycolicibacterium smegmatis, 700084, read-out: MIC Msm 700084

With `CCCCCn1cc(C[C@@H]2NC(=O)[C@H](CC(C)C)N(C)C(=O)[C@H](C(C)C)NC(=O)[C@H]([C@H](OC)c3ccccc3)NC(=O)[C@H](C)NC(=O)[C@H](C[C@@H](C)CO)N(C)C(=O)[C@H](Cc3cn(C)c4ccccc34)N(C)C2=O)nn1` [Compound 25] the koff [1, 9] was 0.1 s⁻¹, the Kd [1, 10] was 26.2 nM and 26 nM and the “koff ClpC1-NTD” value [1, 11] was 1E-1 1E-1 1/s. For the same molecule, the koff [1, 12] was 0.1 s⁻¹, the Kd [1, 13] was 26.1 ± 0.1 nM and the efflux ratio (in vitro) was 25.1. It also gave a Papp A→B (in vitro; Caco-2, CACO permeability PEAB) of 0.87 ×10⁻⁶ cm/s, a Papp A→B (in vitro; [14]) of 0.9 ×10⁻⁶ cm/s and a Papp B→A (in vitro; [15]) of 22 ×10⁻⁶ cm/s. The “Caco-2 Int. Perm” value (Caco-2 monolayers) was 11.4, the “Permeability Correlation P (A-B)” value (Caco-2 monolayers) was > 3 and the “Permeability Correlation Ratio” value (Caco-2 monolayers) was > 1.5. For the same molecule, the “Microsomal Stability Mouse QH” value [2] was 79.2% and 83.9%, the “Microsomal Stability Mice” value [2] was 82 %Qh and the “Microsomal Stability Rat QH” value [3] was 62% and 62.6%. For the same molecule, the “Microsomal Stability Rat” value [3] was 62 %Qh, the “Microsomal Stability Human QH” value [4] was >88.4 >88.4% and the “Microsomal Stability Human” value [4] was > 88 %Qh. For the same molecule, the “Hepatocyte Mice” value [5] was 21 %Qh, the “Hepatocyte Stability Mouse QH” value [5] was 27.872% and the “Hepatocyte Rat” value [6] was 16 %Qh. For the same molecule, the “Hepatocyte Human” value [7] was 30 %Qh, the MIC [8, 16] was 6.3 µM (≈ 6.55 µg/mL) and the MIC [8, 17] was 6.3 µM (≈ 6.55 µg/mL). It also gave an MIC [8, 18] of 6.25 µM (≈ 6.5 µg/mL), an MIC [8, 19] of 6.25 µM (≈ 6.5 µg/mL) and an MIC (Msm 607; [20]) of 12.5 µM (≈ 13 µg/mL). For the same molecule, the MIC (Msm 607; [21]) was 12.5 µM (≈ 13 µg/mL), the MIC (Msm 700084; [22]) was 12.5 µM (≈ 13 µg/mL) and the MIC (Msm 700084; [23]) was 12.5 µM (≈ 13 µg/mL).
In the case of `C#CCn1cc(C[C@H]2C(=O)N(C)[C@@H](C[C@@H](C)CO)C(=O)N[C@@H](C)C(=O)N[C@@H]([C@H](OC)c3ccccc3)C(=O)N[C@@H](C(C)C)C(=O)N(C)[C@@H](CC(C)C)C(=O)N[C@@H](C(C)C)C(=O)N2C)c2ccccc21` [Compound 26] (cyclo(A[Phe(βR-OMe)]V[NMeL]V[X2][NMeLeu(5-OH,4R)])), the koff [1, 9] is reported as 0.04 s⁻¹, the Kd [1, 10] is reported as 17 nM and 12.3 nM and the “koff ClpC1-NTD” value [1, 11] is reported as 4E-2 4E-2 1/s. The koff [1, 12] was 0.04 s⁻¹, the Kd [1, 13] was 15 ± 3 nM and the efflux ratio (in vitro) was 2.2. For the same molecule, the Papp A→B (in vitro; Caco-2, CACO permeability PEAB) was 25 ×10⁻⁶ cm/s, the Papp B→A (in vitro; Caco-2, CACO permeability PEBA) was 49 ×10⁻⁶ cm/s and the “Caco-2 Int. Perm” value (Caco-2 monolayers) was 24.0. For the same molecule, the “Influence of N-methylation on permeability” value (Caco-2 monolayers) was 9.3, the “Permeability Correlation P (A-B)” value (Caco-2 monolayers) was 13.6 and the “Permeability Correlation Ratio” value (Caco-2 monolayers) was 9.3. The “Microsomal Stability Mouse QH” value [2] was >88.400%, the “Microsomal Stability Mice” value [2] was > 88 %Qh and the “Microsomal Stability Rat QH” value [3] was >87.900%. The “Microsomal Stability Rat” value [3] was > 88 %Qh, the “Microsomal Stability Human QH” value [4] was >88.400% and the “Microsomal Stability Human” value [4] was > 88 %Qh. The “Hepatocyte Mice” value [5] was 67 %Qh, the “Hepatocyte Stability Mouse QH” value [5] was 66.557% and the “Hepatocyte Rat” value [6] was 68 %Qh. The “Hepatocyte Stability Rat QH” value [6] was 67.861%, the “Hepatocyte Stability Human QH” value [7] was 43.919% and the MIC [8, 16] was 6.3 µM (≈ 6.02 µg/mL). The MIC [8, 17] was 6.3 µM (≈ 6.02 µg/mL), the MIC [8, 18] was 6.25 µM (≈ 5.97 µg/mL) and the MIC [8, 19] was 6.25 µM (≈ 5.97 µg/mL). For the same molecule, the MIC (Msm 607; [20]) was 6.3 µM (≈ 6.02 µg/mL), the MIC (Msm 607; [21]) was 6.25 µM (≈ 5.97 µg/mL) and the MIC (Msm 700084; [22]) was 12.5 µM (≈ 11.9 µg/mL). For the same molecule, the MIC (Msm 700084; [23]) was 12.5 µM (≈ 11.9 µg/mL).
With `C#CCOc1ccc([C@@H](OC)[C@@H]2NC(=O)[C@H](C)NC(=O)[C@H](C[C@@H](C)CO)N(C)C(=O)[C@H](Cc3cn(C)c4ccccc34)NC(=O)[C@H](C(C)C)NC(=O)[C@H](CC(C)C)N(C)C(=O)[C@H](C(C)C)NC2=O)cc1` [SI-38] (cyclo(A[X3]V[NMeL]V[Trp(1-Me)][NMeLeu(5-OH,4R)])) the Kd ([1]; SPR (Supplementary Table 1), read-out: KD ClpC1-NTD Mean ± SD) was 5.6 ± 0.6 nM, the “koff ClpC1-NTD” value [1, 11] was 0.04 s⁻¹ and the Kd ([1]; SPR, single independent measurements, read-out: KD ClpC1-NTD) was 6 nM and 5.19 nM. The koff [1, 12] was 0.06 s⁻¹, the Papp B→A (in vitro; Caco-2, CACO permeability PEBA) was 18 ×10⁻⁶ cm/s and the Papp A→B (in vitro; [14]) was < 0.2 ×10⁻⁶ cm/s. For the same molecule, the Papp B→A (in vitro; [15]) was 18 ×10⁻⁶ cm/s, the “Caco-2 Int. Perm” value (Caco-2 monolayers) was 9.1 and the “Microsomal Stability Mouse QH” value [2] was 72.800%. The “Microsomal Stability Mice” value [2] was 73 %Qh, the “Microsomal Stability Rat QH” value [3] was 58.700% and the “Microsomal Stability Rat” value [3] was 59 %Qh. For the same molecule, the “Microsomal Stability Human QH” value [4] was 83.600%, the “Microsomal Stability Human” value [4] was 84 %Qh and the “Hepatocyte Mice” value [5] was 15 %Qh. For the same molecule, the “Hepatocyte Stability Mouse QH” value [5] was 15.001%, the “Hepatocyte Rat” value [6] was 37 %Qh and the “Hepatocyte Stability Rat QH” value [6] was 37.130%. The “Hepatocyte Human” value [7] was 19 %Qh, the “Hepatocyte Stability Human QH” value [7] was 19.299% and the MIC [8, 17] was 1.6 µM (≈ 1.55 µg/mL). It also gave an MIC [8, 19] of 1.56 µM (≈ 1.52 µg/mL), an MIC (Msm 607; [20]) of 25 µM (≈ 24.3 µg/mL) and an MIC (Msm 607; [21]) of 25 µM (≈ 24.3 µg/mL). The MIC (Msm 700084; [22]) was 12.5 µM (≈ 12.1 µg/mL) and the MIC (Msm 700084; [23]) was 12.5 µM (≈ 12.1 µg/mL).
